Measured values as given in patent US9896441B2 (Lycera Corporation, priority 2014, dated 2018).

What was measured:
RORγ-LBD = molecular target: T1, RORγ-LBD (Homo sapiens, UniProt P51449); test: RORγ-Ligand Binding Domain (LBD) TR-FRET Assay; type: biochemical; conditions: for TR-FRET Assay Max Response: maximum response;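 on TR-FRET Assay Max Response: 665/615 nm signal ratio set to 100 without ursolic acid or test compound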
T1 construct: made in house; host or cells: SF9 cells (baculovirus); used as diluted lysate
T1 sequence (P51449 269-508 limits assumed): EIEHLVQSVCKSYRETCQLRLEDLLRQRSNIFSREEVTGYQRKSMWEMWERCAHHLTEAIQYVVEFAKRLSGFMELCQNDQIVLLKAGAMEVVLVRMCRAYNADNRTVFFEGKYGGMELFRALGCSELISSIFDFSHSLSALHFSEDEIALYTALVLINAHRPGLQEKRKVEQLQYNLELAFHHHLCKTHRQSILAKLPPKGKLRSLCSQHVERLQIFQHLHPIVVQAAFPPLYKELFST
Outline: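 His-tagged RORγ-LBD from SF9 baculovirus lysate, ~3 nM final, in 50 mM Tris pH 7.0, 50 mM KCl, 1 mM EDTA, 0.1 mM DTT, 0.01% BSA. Biotinylated SRC1 LXXLL peptide at 200 nM final with 2 μM ursolic acid; TR-FRET read-out, 1% DMSO final.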

Gal4-RORγ-LBD = molecular target: T2, Gal4-RORγ-LBD (Homo sapiens, UniProt P51449); test: Gal4-RORγ Luciferase Reporter Assay in HEK-293T Cells; type: cell-based; conditions: HEK-293 cells; for Gal4-RORγ Assay Max Response: maximum response
T2 construct: expressed in transfected cells
T2 sequence (P51449 269-508 limits assumed): T1 sequence (P51449 269-508 limits assumed)
Outline: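 HEK-293 cells were co-transfected with Gal4-RORγ-LBD and a Gal4-luciferase reporter, then exposed overnight at 37 °C to compounds with […] ursolic acid present (0.2% DMSO). Luminescence was read with One-Glo after 10 min at RT, untreated signal was set as 100, and Max Response was taken as the upper plateau of a 4-parameter logistic fit.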

[1] = luciferase reporter, in presence of ursolic acid
[2] = luciferase reporter, with ursolic acid

EC50 (RORγ-LBD; RORγ-LBD TR-FRET assay) [nM] | EC50 (Gal4-RORγ-LBD; [1]) [nM] | EC50 (RORγ-LBD; RORγ-LBD TR-FRET) [nM] | EC50 (Gal4-RORγ-LBD; [2]) [nM] | Structure (SMILES) | TR-FRET Assay Max Response (RORγ-LBD; RORγ-LBD TR-FRET assay) | Gal4-RORγ Assay Max Response (Gal4-RORγ-LBD; [1]) | other results
< 500 | 500 to 5000 | – | – | O=C(O)CC[C@H]1CC(S(=O)(=O)c2cccc(C(F)(F)F)c2)c2cc(OCc3c(F)cccc3Cl)ccc2O1 (stereo in doubt) [Example 186A, 3-(6-((2-chloro-6-fluorobenzyl)-oxy)-4-((3-(trifluoromethyl)-phenyl)sulfonyl)chroman-2-yl)propanoic acid] | – | – | –
< 500 | < 500 | – | – | C/C(=C\c1ccc2c(c1)N(S(=O)(=O)c1cccc(C(F)(F)F)c1)C[C@H](CCC(=O)N1CC[C@H](C(=O)O)C1)O2)c1c(F)cccc1Cl [Example 129C, (S)-1-(3-((S)-6-((E)-2-(2-chloro-6-fluorophenyl)-prop-1-en-1-yl)-4-((3-(trifluoromethyl)phenyl)sulfonyl)-3,4-dihydro-2H-benzo[b][1,4]oxazin-2-1)propanoyl)pyrrolidine-3-carboxylic acid] | **** (a value greater than 200) | ** (a value in the range of greater than 90 to 150) | –
– | – | < 500 | 500 to 5000 | CCOc1ncc(C(F)(F)F)cc1S(=O)(=O)N1C[C@H](CCC(=O)O)Oc2ccc(C=C3CCCCC3)cc21 [Example 95B, (S)-3-(6-(cyclohexylidenemethyl)-4-((2-ethoxy-5-(trifluoromethyl)pyridin-3-yl)sulfonyl)-3,4-dihydro-2H-benzo[b][1,4]oxazin-2-yl)propanoic acid] | – | – | –
< 500 | < 500 | – | – | C/C(=C\c1ccc2c(c1)N(S(=O)(=O)c1cccc(C(F)(F)F)c1)C[C@H](CCC(=O)N1CCC[C@@H]1C(=O)O)O2)c1c(F)cccc1Cl [Example 129H, (3-((S)-6-((E)-2-(2-chloro-6-fluorophenyl)prop-1-en-1-yl)-4-((3-(trifluoromethyl)phenyl)sulfonyl)-3,4-dihydro-2H-benzo[b][1,4]oxazin-2-yl)propanoyl)-D-proline] | *** (a value in the range of greater than 150 to 200) | *** (a value in the range of greater than 150 to 200) | –
< 500 | 500 to 5000 | – | – | C/C(=C\c1ccc2c(c1)N(S(=O)(=O)c1cccc(C(F)(F)F)c1)C[C@H](CCCN1CCC(O)C1)O2)c1c(F)cccc1Cl (stereo partly drawn) [Example 119B, 1-(3-((S)-6-((E)-2-(2-chloro-6-fluorophenyl)prop-1-en-1-yl)-4-((3-(trifluoromethyl)-phenyl)-sulfonyl)-3,4-dihydro-2H-benzo[b][1,4]-oxazin-2-yl)propyl)-pyrrolidin-3-ol] | *** (a value in the range of greater than 150 to 200) | ** (a value in the range of greater than 90 to 150) | –

The next lines start with the compound.

Structure (SMILES) | EC50 (RORγ-LBD; RORγ-LBD TR-FRET assay) [nM] | EC50 (Gal4-RORγ-LBD; [1]) [nM] | EC50 (RORγ-LBD; RORγ-LBD TR-FRET) [nM] | EC50 (Gal4-RORγ-LBD; [2]) [nM] | TR-FRET Assay Max Response (RORγ-LBD; RORγ-LBD TR-FRET assay) | Gal4-RORγ Assay Max Response (Gal4-RORγ-LBD; [1]) | other results
CC/C(=C\c1ccc2c(c1)N(S(=O)(=O)c1cccc(C(F)(F)F)c1)C[C@H](CCC(=O)O)O2)C(C)C [Example 191G, (S,E)-3-(6-(2-ethyl-3-methylbut-1-en-1-yl)-4-((3-(trifluoromethyl)-phenyl)sulfonyl)-3,4-dihydro-2H-benzo[b][1,4]oxazin-2-yl)propanoic acid] | – | – | – | – | – | – | EC50 (RORγ-LBD; with 2 μM ursolic acid (RORγ antagonist), highest test concentration 10 μM): < 500 nM; EC50 (Gal4-RORγ-LBD; ursolic acid present, luciferase readout): < 500 nM
COc1cc(S(=O)(=O)C2CC(CCC(=O)O)Oc3ccc(OCc4c(F)cccc4Cl)cc32)ccc1F (centres unmarked) [Example 179, 3-(6-((2-Chloro-6-fluorobenzyl)oxy)-4-((4-fluoro-3-methoxyphenyl)sulfonyl)chroman-2-yl)propanoic acid] | < 500 | 500 to 5000 | – | – | ** (a value in the range of greater than 90 to 150) | *** (a value in the range of greater than 150 to 200) | –
CCOc1nn(CC)cc1S(=O)(=O)N1C[C@H](CCC(=O)OC)Oc2ccc(/C=C/c3nccs3)cc21 [Example 89R, (S,E)-methyl 3-(4-((3-ethoxy-1-ethyl-1H-pyrazol-4-yl)sulfonyl)-6-(2-(thiazol-2-yl)vinyl)-3,4-dihydro-2H-benzo[b][1,4]oxazin-2-yl)propanoate] | – | – | 5000 to 10000 | > 10000 | – | – | –
COC(=O)CC[C@H]1CN(S(=O)(=O)c2cccc(OC(F)F)c2)c2cc(/C=C/c3ccccc3C(F)(F)F)ccc2O1 [Example 89AP, (S,E)-methyl 3-(4-((3-(difluoromethoxy)phenyl)sulfonyl)-6-(2-(trifluoromethyl)styryl)-3,4-dihydro-2H-benzo[b][1,4]-oxazin-2-yl)propanoate] | – | – | < 500 | 500 to 5000 | – | – | –
C/C(=C\c1ccc2c(c1)N(S(=O)(=O)c1cccc(C(F)(F)F)c1)C[C@H](O)C2)c1c(F)cccc1Cl [Example 162, (R,E)-7-(2-(2-Chloro-6-fluorophenyl)prop-1-en-1-yl)-1-((3-(trifluoromethyl)phenyl)sulfonyl)-1,2,3,4-tetrahydroquinolin-3-ol] | < 500 | < 500 | – | – | *** (a value in the range of greater than 150 to 200) | ** (a value in the range of greater than 90 to 150) | –
COC(=O)CC[C@H]1CN(S(=O)(=O)c2cccc(C(F)F)c2)c2cc(/C=C/c3c(Cl)cccc3C(F)F)ccc2O1 [Example 89EQ, methyl (S,E)-3-(6-(2-chloro-6-(difluoromethyl)styryl)-4-((3-(difluoromethyl)phenyl)-sulfonyl)-3,4-dihydro-2H-benzo[b][1,4]oxazin-2-yl)propanoate] | – | – | < 500 | < 500 | – | – | –
O=C(O)CC[C@H]1CN(S(=O)(=O)c2cccc(C(F)(F)F)c2)c2cc(/C=C/c3cccnc3Cl)ccc2O1 [Example 89CD, (S,E)-3-(6-(2-(2-chloropyridin-3-yl)vinyl)-4-((3-(trifluoromethyl)-phenyl)sulfonyl)-3,4-dihydro-2H-benzo[b][1,4]oxazin-2-yl)-propanoic acid] | – | – | < 500 | 500 to 5000 | – | – | –
O=S(=O)(c1cccc(C(F)(F)F)c1)N1C[C@@H](O)Cc2ccc(OCc3c(F)cccc3Cl)cc21 [Example 158, (S)-7-((2-Chloro-6-fluorobenzyl)oxy)-1-((3-(trifluoromethyl)phenyl)sulfonyl)-1,2,3,4-tetrahydroquinolin-3-ol] | < 500 | < 500 | – | – | – | – | –
COC(=O)CC[C@H]1CN(S(=O)(=O)c2cccc(C(F)(F)F)c2)c2cc(/C=C/c3ccccn3)ccc2O1 [Example 89DH, methyl (S,E)-3-(6-(2-(pyridin-2-yl)vinyl)-4-((3-(trifluoromethyl)phenyl)sulfonyl)-3,4-dihydro-2H-benzo[b][1,4]oxazin-2-yl)propanoate] | – | – | < 500 | 500 to 5000 | – | – | –
COc1cc(S(=O)(=O)N2C[C@H](CNC(=O)CCC(=O)O)Oc3ccc(/C=C(\C)c4c(F)cccc4Cl)cc32)ccc1F [Example 132, (S,E)-4-(((6-(2-(2-Chloro-6-fluorophenyl)prop-1-en-1-yl)-4-((4-fluoro-3-methoxyphenyl)sulfonyl)-3,4-dihydro-2H-benzo[b][1,4]oxazin-2-yl)methyl)amino)-4-oxobutanoic acid] | < 500 | 500 to 5000 | – | – | **** (a value greater than 200) | *** (a value in the range of greater than 150 to 200) | –
O=C(O)CC[C@H]1CN(S(=O)(=O)c2cccc(C(F)(F)F)c2)c2cc(/C=C/c3cc(F)ccc3C(F)(F)F)ccc2O1 [Example 89CP, (S,E)-3-(6-(5-fluoro-2-(trifluoromethyl)styryl)-4-((3-(trifluoromethyl)phenyl)sulfonyl)-3,4-dihydro-2H-benzo[b][1,4]-oxazin-2-yl)propanoic acid] | – | – | < 500 | < 500 | – | – | –
COc1cc(S(=O)(=O)N2c3cc(OCc4c(F)cccc4Cl)ccc3C=C(CN)[C@H]2C)ccc1F [Example 139, (R)-(7-((2-Chloro-6-fluorobenzyl)oxy)-1-((4-fluoro-3-methoxyphenyl)sulfonyl)-2-methyl-1,2-dihydroquinolin-3-yl)methanamine] | < 500 | 500 to 5000 | – | – | – | – | –
CCOc1nn(CC)cc1S(=O)(=O)N1C[C@H](CCC(=O)OC)Oc2ccc(/C=C/c3c(F)cccc3C(F)(F)F)cc21 [Example 87, Methyl (S,E)-3-(4-((3-ethoxy-1-ethyl-1H-pyrazol-4-yl)sulfonyl)-6-(2-fluoro-6-(trifluoromethyl)styryl)-3,4-dihydro-2H-benzo[b][1,4]oxazin-2-yl)propanoate] | – | – | < 500 | 500 to 5000 | – | – | –
O=C(O)CC[C@H]1CN(S(=O)(=O)c2cccc(OC(F)F)c2)c2cc(/C=C/c3ccccn3)ccc2O1 [Example 89C, (S,E)-3-(4-((3-(difluoromethoxy)-phenyl)sulfonyl)-6-(2-(pyridin-2-yl)vinyl)-3,4-dihydro-2H-benzo[b][1,4]oxazin-2-yl)propanoic acid] | – | – | 500 to 5000 | 5000 to 10000 | – | – | –
